Legend:
Assay type in all cases: biochemical
PKR R510Q = PKR R510Q (Homo sapiens, UniProt P30613, R510Q); experiment: PKR R510Q Single Point Percent Activation Assay; conditions: compound at 1 μM; for activation at 1 µM: read-out: % Act. R510Q
Description: PKR R510Q Single Point Percent Activation Assay
(§1) A compound described herein was diluted with DMSO and tested at 1 μM concentration. The enzyme was diluted in 1× Buffer: (100 mM KCl, 50 mM Tris 7.5, 5 mM MgCl2, 1 mM DTT, 0.03% BSA). 2 μL of compound solution was first added into wells, and then 180 μL of enzyme solution was added. Assays were assembled except for ADP, and plates were stored for 60 minutes at RT. 20 μL ADP was added to start the assay and assay output was evaluated using OD340 at SpectraMax. The assay was run at room temperature.
PKR R510Q (40 ng/well), Tris pH 7.5 (50 mM), KCl (100 mM), MgCl2 (5 mM), ADP (0.2 mM), PEP (0.11 mM), NADH (180 μM), LDH (0.5 units, Sigma 59023), DTT (1 mM) and BSA (0.03%).

PKR R532W = PKR R532W (Homo sapiens, UniProt P30613, R532W); experiment: PKR R532W Single Point Percent Activation Assay; conditions: compound at 1 μM; for activation at 1 µM: read-out: % Act. R532W
PKR R532W, sequence (P30613 whole entry R532W): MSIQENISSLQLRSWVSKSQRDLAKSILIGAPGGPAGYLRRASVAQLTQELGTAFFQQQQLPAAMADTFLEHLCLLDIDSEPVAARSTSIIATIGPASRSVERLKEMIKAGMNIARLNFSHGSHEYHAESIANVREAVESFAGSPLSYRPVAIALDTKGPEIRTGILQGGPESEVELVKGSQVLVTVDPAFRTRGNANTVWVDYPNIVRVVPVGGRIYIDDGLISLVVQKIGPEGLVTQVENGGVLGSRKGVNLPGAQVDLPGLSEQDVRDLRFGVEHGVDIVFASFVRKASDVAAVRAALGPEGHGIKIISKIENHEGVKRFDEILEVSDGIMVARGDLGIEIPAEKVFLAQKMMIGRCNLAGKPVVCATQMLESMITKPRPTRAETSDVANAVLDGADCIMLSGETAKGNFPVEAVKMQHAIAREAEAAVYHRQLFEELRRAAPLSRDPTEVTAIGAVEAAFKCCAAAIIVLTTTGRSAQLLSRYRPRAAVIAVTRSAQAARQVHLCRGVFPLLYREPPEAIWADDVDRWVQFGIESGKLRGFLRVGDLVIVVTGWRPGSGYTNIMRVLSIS
Description: PKR R532W Single Point Percent Activation Assay
as §1
PKR R532W (100 ng/well), Tris pH 7.5 (50 mM), KCl (100 mM), MgCl2 (5 mM), ADP (0.36 mM), PEP (0.1 mM), NADH (180 μM), LDH (0.5 units, Sigma 59023), DTT (1 mM) and BSA (0.03%).

PKR T384W = PKR T384W (Homo sapiens, UniProt P30613); experiment: PKR T384W Single Point Percent Activation Assay; conditions: compound at 1 μM
PKR T384W, sequence (P30613 whole entry T384M): as the sequence (P30613 whole entry R532W) above, with T384M, W532R counted along it
Description: PKR T384W Single Point Percent Activation Assay
as §1, with “180 μL enzyme solution” for “180 μL of enzyme solution”
PKR T384W soluble (300 ng/well), Tris pH 7.5 (50 mM), KCl (100 mM), MgCl2 (5 mM), ADP (0.08 mM), PEP (0.23 mM), NADH (180 μM), LDH (0.5 units, Sigma 59023), DTT (1 mM) and BSA (0.03%).

PKR wt = PKR wt (Homo sapiens, UniProt P30613); experiment: PKR WT Single Point Percent Activation Assay; conditions: compound at 1 μM
PKR wt, sequence (P30613 whole entry): as the sequence (P30613 whole entry R532W) above, with W532R counted along it
Description: PKR WT Single Point Percent Activation Assay
as §1
PKR wt (100 ng/well), Tris pH 7.5 (50 mM), KCl (100 mM), MgCl2 (5 mM), ADP (0.48 mM), PEP (0.15 mM), NADH (180 μM), LDH (0.5 units, Sigma 59023), DTT (1 mM) and BSA (0.03%).

wild type PKR = wild type PKR (Homo sapiens, UniProt P30613); experiment: PKR assay, AC50 (wild type); conditions: read-out: PKR WT AC50
wild type PKR, sequence (P30613 whole entry): as the sequence (P30613 whole entry R532W) above, with W532R counted along it
Description: • PKR or PKR mutant enzyme solution was diluted in assay buffer. • 2 μL of test compound was added into wells first, and then 180 μL reaction mix was added. • Reactions mixture with test compound was assembled except for ADP, and plates were stored for 60 minutes at room temperature. • 20 uL ADP was added to start reaction at room temperature and reaction progress was measured as changes in absorbance at 340 nm wavelength at room temperature.
Test Compound Preparation: • Test compound stock was made at 100× concentration in 100% DMSO (10 mM) • 1 to 3 dilutions were made for 11 points (i.e. 50 μl of first concentration added to 100 μl 100% DMSO to yield 3.33 mM, 50 μl of this added to 100 μl DMSO to yield 1.11 mM, and so forth) • 1 to 100 dilution into assay (2 μl in 200 μl) yielded starting concentration of 100 μM, decreasing 3 fold for 11 points.

PKR R510Q, sequence (P30613 whole entry R510Q): as the sequence (P30613 whole entry R532W) above, with R510Q, W532R counted along it

| activation at 1 µM (PKR R510Q) [%] | activation at 1 µM (PKR R532W) [%] | activation at 1 µM (PKR wt) [%] | AC50 (wild type PKR) [nM] | SMILES | % Act. T384W (PKR T384W) | % Act. R532W (PKR R532W) | % Act. R510Q (PKR R510Q) | Act. % WT (PKR wt) |
| --- | --- | --- | --- | --- | --- | --- | --- | --- |
| 101 to 500 | 1 to 100 | 101 to 500 |  | CC1(O)CN(C(=O)c2ccc(NS(=O)(=O)c3cccc4cccnc34)c(F)c2)C1 | B (a % activation at 1 μM of from 101 to 500) |  |  |  |
| 101 to 500 | 1 to 100 | 101 to 500 |  | CC1(O)CN(C(=O)c2ccc(NS(=O)(=O)c3cccc4cccnc34)cc2)C1 | B (a % activation at 1 μM of from 101 to 500) |  |  |  |
| 101 to 500 | 1 to 100 | 101 to 500 |  | COc1cc(NS(=O)(=O)c2cccc3cccnc23)ccc1C(=O)N1CC(C)(O)C1 | B (a % activation at 1 μM of from 101 to 500) |  |  |  |
| 101 to 500 | 1 to 100 | 101 to 500 |  | COc1ccccc1OC1CN(C(=O)c2ccc(NS(=O)(=O)c3cccc4cccnc34)cc2)C1 | B (a % activation at 1 μM of from 101 to 500) |  |  |  |
| 101 to 500 | 101 to 500 | 101 to 500 |  | COc1cc(NS(=O)(=O)c2cccc3cccnc23)ccc1C(=O)N1CC(O)(Cc2ccccc2)C1 | B (a % activation at 1 μM of from 101 to 500) |  |  |  |
| 101 to 500 | 1 to 100 | 101 to 500 |  | Cc1cc(C(=O)N2CC(O)(Cc3ccccc3)C2)ccc1NS(=O)(=O)c1cccc2cccnc12 | B (a % activation at 1 μM of from 101 to 500) |  |  |  |
| 101 to 500 | 101 to 500 | 101 to 500 |  | Cc1cc(C(=O)N2CC(OC(=O)NC(C)C)C2)ccc1NS(=O)(=O)c1cccc2cccnc12 | A (a % activation at 1 μM of from 1 to 100) |  |  |  |
| 101 to 500 | 101 to 500 | 101 to 500 |  | COc1cc(NS(=O)(=O)c2cccc3cccnc23)ccc1C(=O)N1CC(OC(=O)NC(C)C)C1 | B (a % activation at 1 μM of from 101 to 500) |  |  |  |
| 101 to 500 | 1 to 100 | 101 to 500 |  | CC(C)NC(=O)OC1CN(C(=O)c2ccc(NS(=O)(=O)c3cccc4cccnc34)c(F)c2)C1 | B (a % activation at 1 μM of from 101 to 500) |  |  |  |
| 101 to 500 | 101 to 500 | 101 to 500 |  | CC(C)NC(=O)OC1CN(C(=O)c2ccc(NS(=O)(=O)c3cccc4cccnc34)cc2)C1 | B (a % activation at 1 μM of from 101 to 500) |  |  |  |
| 101 to 500 | 101 to 500 | 101 to 500 |  | Cc1cc(C(=O)N2CC(O)(c3ccccc3)C2)ccc1NS(=O)(=O)c1cccc2cccnc12 | B (a % activation at 1 μM of from 101 to 500) |  |  |  |
| 101 to 500 | 101 to 500 | 101 to 500 |  | COc1cc(NS(=O)(=O)c2cccc3cccnc23)ccc1C(=O)N1CC(O)(c2ccccc2)C1 | B (a % activation at 1 μM of from 101 to 500) |  |  |  |
| 101 to 500 | 101 to 500 | 101 to 500 |  | C=CCNC(=O)NC1CN(C(=O)c2ccc(NS(=O)(=O)c3cccc4cccnc34)cc2)C1 | B (a % activation at 1 μM of from 101 to 500) |  |  |  |
| 101 to 500 | 101 to 500 | 101 to 500 |  | C=CCNC(=O)NC1CN(C(=O)c2ccc(NS(=O)(=O)c3cccc4cccnc34)c(OC)c2)C1 | B (a % activation at 1 μM of from 101 to 500) |  |  |  |
| 101 to 500 | 101 to 500 | 101 to 500 |  | O=C(c1ccc(NS(=O)(=O)c2cccc3cccnc23)cc1)N1CC(O)C1 | B (a % activation at 1 μM of from 101 to 500) |  |  |  |
| 101 to 500 | 101 to 500 | 101 to 500 |  | Cc1cc(C(=O)N2CC(O)C2)ccc1NS(=O)(=O)c1cccc2cccnc12 | A (a % activation at 1 μM of from 1 to 100) |  |  |  |
| 101 to 500 | 101 to 500 | 101 to 500 |  | COc1cc(NS(=O)(=O)c2cccc3cccnc23)ccc1C(=O)N1CC(O)C1 | A (a % activation at 1 μM of from 1 to 100) |  |  |  |
| 101 to 500 | 101 to 500 | 101 to 500 |  | Cc1cc(C(=O)N2CC(C)(O)C2)ccc1NS(=O)(=O)c1cccc2cccnc12 | B (a % activation at 1 μM of from 101 to 500) |  |  |  |
| 101 to 500 | 101 to 500 | 101 to 500 |  | Cc1cc(C(=O)N2CC(Nc3ccccc3)C2)ccc1NS(=O)(=O)c1cccc2cccnc12 | B (a % activation at 1 μM of from 101 to 500) |  |  |  |
| 101 to 500 | 101 to 500 | 101 to 500 |  | CN(Cc1ccccc1)C1CN(C(=O)c2ccc(NS(=O)(=O)c3cccc4cccnc34)cc2)C1 | B (a % activation at 1 μM of from 101 to 500) |  |  |  |
| 101 to 500 | 101 to 500 | 101 to 500 | 101 to 500 | O=C(c1ccc(NS(=O)(=O)c2cccc3cccnc23)cc1)N1CC(Oc2ccccc2)C1 [drawing 4] | B (a % activation at 1 μM of from 101 to 500) |  |  |  |
| 101 to 500 | 101 to 500 | 101 to 500 | < 100 | O=C(c1ccc(NS(=O)(=O)c2cccc3cccnc23)cc1)N1CC(O)(Cc2ccccc2)C1 [drawing 5] | B (a % activation at 1 μM of from 101 to 500) |  |  |  |
| 101 to 500 | 1 to 100 | 101 to 500 | 101 to 500 | Cc1cc(C(=O)N2CC(NC(=O)c3ccccn3)C2)ccc1NS(=O)(=O)c1cccc2cccnc12 [drawing 7] | B (a % activation at 1 μM of from 101 to 500) |  |  |  |
| 101 to 500 |  | 101 to 500 |  | O=C(NC1CN(C(=O)c2ccc(NS(=O)(=O)c3cccc4cccnc34)cc2)C1)c1ccccn1 [drawing 8] | B (a % activation at 1 μM of from 101 to 500) | A (a % activation at 1 μM of from 1 to 100) |  |  |
| 101 to 500 |  | 101 to 500 |  | COc1ccccc1N(C)C1CN(C(=O)c2ccc(NS(=O)(=O)c3cccc4cccnc34)cc2)C1 [drawing 21] | A (a % activation at 1 μM of from 1 to 100) | B (a % activation at 1 μM of from 101 to 500) |  |  |
|  |  |  |  | COc1ccccc1N(C)C1CN(C(=O)c2ccc(NS(=O)(=O)c3cccc4cccnc34)cc2)C1 [drawing 32] | B (a % activation at 1 μM of from 101 to 500) | A (a % activation at 1 μM of from 1 to 100) | B (a % activation at 1 μM of from 101 to 500) | B (a % activation at 1 μM of from 101 to 500) |
| 1 to 100 | 1 to 100 | 1 to 100 |  | Cc1cc(C(=O)N2CC(Nc3ccccn3)C2)ccc1NS(=O)(=O)c1cccc2cccnc12 [drawing 55] | B (a % activation at 1 μM of from 101 to 500) |  |  |  |
| 101 to 500 | 101 to 500 | 101 to 500 |  | O=C(Nc1ccccn1)OC1CN(C(=O)c2ccc(NS(=O)(=O)c3cccc4cccnc34)cc2)C1 [drawing 65] | B (a % activation at 1 μM of from 101 to 500) |  |  |  |
